Results taken from patent publication US6943007B2, “Immuno-stimulating polysaccharide substance from Phellinus spp. strain and use thereof” (Korea Institute of Science and Technology, priority 1998, dated 2005).

How the values were obtained:
[1] = test system: B16F10 cutaneous cancer cells; test: Viability of mice implanted peritoneally with B16F10 cells, immunochemotherapy co-administration (60 days); format: in vivo, mouse; settings: for body weight during the test: all test groups, alone or in combination, 60-day test; for Proportion (%): untreated = 100
Description: (§1) A homogeneous plantation test system of B16F10 cutaneous cancer cell was utilized for the measurement of the anticancer activity upon co-administration of the polysaccharide substance and adriamycin. The cutaneous cancer cells were implanted in the peritoneal cavity of mice. Adriamycin was peritoneally administrated to the mice for 12 days after tumor implantation while the polysaccharide substance was peritoneally administrated from a week before the implantation to 12 days after the implantation. For 60 days, the viability of the mice was recorded everyday. Adriamycin was used at such low amounts as not to damage the mice.
The cutaneous cancer cells were implanted in the peritoneal cavity of mice. […] For 60 days, the viability of the mice was recorded everyday.
The cutaneous cancer cells were implanted in the peritoneal cavity of mice. […] For 60 days, the viability of the mice was recorded everyday. Cisplastin was used at such low amounts as not to damage the mice.
as §1, with “5-fluoro uracil, as in the above experiments.” for “adriamycin.”, “5-fluoro uracil” for “Adriamycin”

[2] = test system: NCl-H23 lung cancer cells; test: Human cancer cells implanted subcutaneously in nude mice; format: in vivo
Protocol: The activity of the polysaccharide substance against human cancer was assayed using NCl-H23, a lung cancer cell line. Nude mice were subcutaneously implanted with NCl-H23 lung cancer cells. The polysaccharide substance and adriamycin were peritoneally administrated to the nude mice for 12 days after cancer cell implantation. The size of a mass of the cancer cells was measured and the cancer cells were separated and weighed on the 19th day after cancer cell implantation. Because the nude mice were devoid of T-cells, their immunological competency was generally attributed to the activity of natural killer cells or macrophage cells. Therefore, the immunological enhancement obtained when administrating the polysaccharide substance was meditated through these two type cells.

[3] = test system: B16F10 cutaneous cancer cells; test: Lung metastasis of B16F10 cells implanted in tail veins; format: in vivo, C57BL/6 mice; settings: 14th day
Description: In order to test the polysaccharide substance for the prevention of cancer metastasis, B16F10 cutaneous cancer cells were implanted in the tail veins of C57BL/6 mice. On the 14th day after implantation, the lungs were isolated from the mice to investigate whether or to what extent cancer metastasis occurred. Adriamycin was peritoneally administrated to the mice for 12 days after tumor implantation while the polysaccharide substance was peritoneally administrated from a week before the implantation to 12 days after the implantation.

[4] = test system: B16F10 mouse cutaneous cancer cells; test: Direct cytotoxicity, sulforhodamin B method; format: cell-based; settings: 2nd day after treatment
[5] = test system: NCl-H23 human lung cancer cells; test: Direct cytotoxicity, sulforhodamin B method; format: cell-based; settings: 2nd day after treatment
B-cells = test: B-cell antibody-forming cell method; format: cell-based, mice; settings: 10 μg/mL
Description: A better understanding of the present invention may be obtained through the following examples which are set forth to illustrate, but are not to be construed as the limit of the present invention. In the following examples, splenocytes taken from B6C3F mice were used for the measurement of the immuno-stimulating activity of the polysaccharide substances isolated from Phellinus linteus Yoo and other Phellinus spp. First, the splenocytes were immunized for 2 days by treatment with the substances and lipopolysaccharide as a positive control. The antibodies formed were measured by a spectrophotometer and considered as a standard for the immuno-stimulating activity. The effect of the polysaccharide substance on the proliferation of T-cells was measured by a mixed lymphocyte response technique. To detect the proliferation of lymphocytes, nuclear DNA which was newly synthesized in lymphocytes was measured by using ^3H-thymidine. In this example, B-cells were counted by use of an antibody-forming cell method and the proliferation of T-cells was measured by a mixed lymphocyte response technique. In addition, in order to detect the effect of the polysaccharide substance on the proliferation of lymphocytes, the nuclear DNA which was newly synthesized was measured by using ^3H-thymidine.

Compound: O=c1[nH]cc(F)c(=O)[nH]1 [5-FU, 5-fluoro uracil]
- Nos. of viable mice on the 60th day ([1]; 5-FU 1 mg/kg): 0/10
- Avg. Viability ([1]; 5-FU 1 mg/kg peritoneally for 12 days after implantation): 33.0 days
- Nos. of viable mice on the 60th day ([1]; 5-FU 3 mg/kg): 2/10
- body weight during the test [1]: did not lose body weight

Compound: COc1cccc2c1C(=O)c1c(O)c3c(c(O)c1C2=O)C[C@@](O)(C(=O)CO)C[C@@H]3O[C@H]1C[C@H](N)[C@H](O)[C@H](C)O1 [Adriamycin, adriamycin]
- Cell size ([2]; 14th day, Am 1 mg/kg peritoneally for 12 days after implantation): Am^2 (1 mg/kg) 12 mm^3
- Final Cancer Weight ([2]; 19th day after implantation, Adriamycin 1 mg/kg): 95
- body weight of tested mice ([2]; nude mice, all test groups): did not gain or lose body weight
- Nos. of Spots (cancer spots on the lungs) ([3]; Adriamycin 1 mg/kg peritoneally for 12 days): 197
- Nos. of Spots (cancer spots on the lungs) ([3]; Adriamycin 3 mg/kg): 172
- cell quantity (untreated = 100%) ([4]; 1 μg/mL): 29%
- cell quantity (untreated = 100%) ([4]; 3 μg/mL): 9%
- cell quantity (untreated = 100%) ([4]; 10 μg/ml): −10%
- cell quantity (untreated = 100%) ([4]; 30 μg/mL): −10%
- cell quantity (untreated = 100%) ([5]; 1 μg/mL): 71%
- cell quantity (untreated = 100%) ([5]; 3 μg/mL): 39%
- cell quantity (untreated = 100%) ([5]; 10 μg/ml): 7%
- cell quantity (untreated = 100%) ([5]; 30 μg/mL): −1%
- Nos. of viable mice on the 60th day ([1]; Am 0.1 mg/kg): 0/10
- Nos. of viable mice on the 60th day ([1]; Am 0.3 mg/kg): 2/10
- body weight during the test [1]: did not lose body weight

Compound: N.N.[Cl][Pt][Cl] [C.P, Cisplatin]
- Nos. of viable mice on the 60th day ([1]; C.P 0.5 mg/kg): 0/10
- Avg. Viability ([1]; C.P 0.5 mg/kg peritoneally for 12 days after implantation): 33.0 days
- Avg. Viability ([1]; C.P 0.5 mg/kg peritoneally for 12 days after implantation, listed as Cisplatin): 33 days
- Nos. of viable mice on the 60th day ([1]; C.P 1.5 mg/kg): 2/10

Compound: CO[C@@]12[C@H](COC(N)=O)C3=C(C(=O)C(C)=C(N)C3=O)N1C[C@@H]1N[C@@H]12 [M.C, Mitomycin C]
- Nos. of viable mice on the 60th day ([1]; M.C 0.2 mg/kg): 0/10
- Avg. Viability ([1]; M.C 0.2 mg/kg peritoneally for 12 days after implantation): 32.5 days
- Proportion (%) ([1]; M.C 0.2 mg/kg): 179.6%
- Avg. Viability ([1]; M.C 0.6 mg/kg): 38.0 days
- Nos. of viable mice on the 60th day ([1]; M.C 0.6 mg/kg): 1/10
- Proportion (%) ([1]; M.C 0.6 mg/kg): 209.9%

Compound: lipopolysaccharide [LPS]
- B-Cell Antibody-forming (B-cells): 0.81 ± 0.23 Abs 576 nm
